According to ChEMBL document CHEMBL3351440, “Synthesis of diethylamino-curcumin mimics with substituted triazolyl groups and their sensitization effect of TRAIL against brain cancer cells” (2014):
The source made the active and inactive calls. No cut-off for these calls is given here.

Columns and labels:
[1] = (§1) Induction of TRAIL-mediated human CRT-MG cell death at 10 uM after 24 hrs by LDH release assay relative to control; type: functional
[2] = Induction of apoptosis in human CRT-MG cells assessed as cell death at 10 uM after 24 hrs by LDH release assay; type: functional
[3] = Induction of apoptosis in human CRT-MG cells assessed as inhibition of cell proliferation at 10 uM after 24 hrs; type: functional
[4] = test system: CRT-MG; assay: as §1; type: functional
[5] = (§2) Cytotoxicity against TRAIL-induced human CRT-MG cells at 50 uM after 24 hrs; type: functional
[6] = test system: CRT-MG; assay: as §2; type: functional
[7] = Cytotoxicity against TRAIL-induced human U87MG cells assessed as cleavage of procaspase 3/8 at 10 uM after 48 hrs by MTS colorimetric assay; type: functional, U-87MG ATCC
[8] = Cytotoxicity against TRAIL-induced human U251MG cells assessed as cleavage of procaspase 3/8 at 10 uM after 48 hrs by MTS colorimetric assay; type: functional, U-251
[9] = test system: LNCaP; assay: Cytotoxicity against TRAIL-induced human LNCAP cells assessed as caspase 3 activity at 10 uM after 48 hrs by MTS colorimetric assay relative to control; type: functional

Structure (SMILES)	Activity [2] [%]	Activity [4]	also measured
CCN(CC)c1ccc(/C=C/C(=O)c2cccc(N=[N+]=[N-])c2)cc1	27.8	–	Activity [1]: 78.3%; inhibition at 10 µM [3]: 55.6%
CCCCCc1ccc(-c2cn(-c3cccc(C(=O)/C=C/c4ccc(N(CC)CC)cc4)c3)nn2)cc1	<20	Active	–
CCN(CC)c1ccc(/C=C/C(=O)c2cccc(-n3cc(-c4ccc(Br)cc4)nn3)c2)cc1	–	Active	Activity [5]: <20%
CCN(CC)c1ccc(/C=C/C(=O)c2cccc(-n3cc(-c4cc(F)cc(F)c4)nn3)c2)cc1	<20	–	–
CCN(CC)c1ccc(/C=C/C(=O)c2cccc(-n3cc(-c4cccc(Cl)c4)nn3)c2)cc1	<20	Active	–
CCN(CC)c1ccc(/C=C/C(=O)c2cccc(-n3cc(C(C)(C)O)nn3)c2)cc1	13.3	–	fold change (FC) [1]: 2.5; Activity [5]: <20%
CCN(CC)c1ccc(/C=C/C(=O)c2cccc(-n3cc(-c4ccccc4)nn3)c2)cc1	14.3	–	fold change (FC) [1]: 2.5; Activity [6]: Active
C=C(C)c1cn(-c2cccc(C(=O)/C=C/c3ccc(N(CC)CC)cc3)c2)nn1	<20	Active	–
COc1cc(/C=C/C(=O)CC(=O)/C=C/c2ccc(O)c(OC)c2)ccc1O [CURCUMIN]	–	–	Activity [7]: 45%; Activity [8]: 60%; Ratio [9]: 2
CCN(CC)c1ccc(/C=C/C(=O)c2cccc(-n3cc(-c4ccc(C)cc4)nn3)c2)cc1	<20	Active	–
CCN(CC)c1ccc(/C=C/C(=O)c2cccc(-n3cc(-c4ccc(F)cc4)nn3)c2)cc1	<20	Active	–
CCN(CC)c1ccc(/C=C/C(=O)c2cccc(-n3cc(-c4ccc(OC)cc4)nn3)c2)cc1	<20	Active	–
CCN(CC)c1ccc(/C=C/C(=O)c2cccc(-n3cc(-c4ccccc4C(F)(F)F)nn3)c2)cc1	<20	Active	Activity [6]: Active
